How the values were obtained:
Glutamate NMDA receptor [1] = assay: Inhibition of [3H]MK-801 binding to NMDA receptor of adult Wistar rat brain cortical membranes; type: cell membranes, Membrane
Rattus norvegicus [2] = organism: Rattus norvegicus; assay: Percent inhibition of delayed neural death at concentration of 50 uM induced by glutamate and glycine in neocortical neurons of Wistar rat fetus; type: functional
Rattus norvegicus [3] = organism: Rattus norvegicus; assay: Percent inhibition of delayed neural death at concentration of 500 uM induced by glutamate and glycine in neocortical neurons of Wistar rat fetus; type: functional
Glutamate NMDA receptor [4] = assay: Inhibition of [3H]MK-801 binding to NMDA receptor of adult Wistar rat brain cortical membranes: Range 50-500; type: cell membranes, Membrane

SMILES | IC50 (Glutamate NMDA receptor [1]) | Inhibition (Rattus norvegicus [2]) | Inhibition (Rattus norvegicus [3]) | IC50 (Glutamate NMDA receptor [4])
N[C@H](CC(=O)c1ccccn1)C(=O)O | ~300 µM | 18.4% | 60.3% | 
N[C@H](CC(=O)c1cccs1)C(=O)O |  |  |  | < 500 µM
